{"source": "patent US8952008B2", "about": "“Chemical compounds” (Pfizer Limited, priority 2012, dated 2015);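 on Ki: membranes from HEK cells expressing the receptor, incubated with radioligand to equilibrium, filter-bound radioactivity counted, Ki reported as geometric mean of replicate runs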", "key": {"[1]": {"molecular_target": "GABRA2-GABRB2-GABRG2 chloride currents in HEK cells (Homo sapiens (Human), UniProt P18507+P47869)", "sequence (P47869 29-451)": "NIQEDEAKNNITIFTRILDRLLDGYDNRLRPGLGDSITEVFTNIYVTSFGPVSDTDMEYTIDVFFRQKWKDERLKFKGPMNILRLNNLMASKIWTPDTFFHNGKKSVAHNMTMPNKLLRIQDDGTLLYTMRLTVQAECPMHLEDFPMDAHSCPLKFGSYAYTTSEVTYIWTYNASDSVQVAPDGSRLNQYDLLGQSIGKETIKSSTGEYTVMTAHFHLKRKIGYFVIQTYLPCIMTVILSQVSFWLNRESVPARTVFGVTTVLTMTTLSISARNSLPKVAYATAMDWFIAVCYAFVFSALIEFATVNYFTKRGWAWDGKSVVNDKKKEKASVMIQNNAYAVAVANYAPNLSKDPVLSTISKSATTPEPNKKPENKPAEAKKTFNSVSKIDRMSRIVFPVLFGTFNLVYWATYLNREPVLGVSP", "sequence (P47870 26-512 partner)": "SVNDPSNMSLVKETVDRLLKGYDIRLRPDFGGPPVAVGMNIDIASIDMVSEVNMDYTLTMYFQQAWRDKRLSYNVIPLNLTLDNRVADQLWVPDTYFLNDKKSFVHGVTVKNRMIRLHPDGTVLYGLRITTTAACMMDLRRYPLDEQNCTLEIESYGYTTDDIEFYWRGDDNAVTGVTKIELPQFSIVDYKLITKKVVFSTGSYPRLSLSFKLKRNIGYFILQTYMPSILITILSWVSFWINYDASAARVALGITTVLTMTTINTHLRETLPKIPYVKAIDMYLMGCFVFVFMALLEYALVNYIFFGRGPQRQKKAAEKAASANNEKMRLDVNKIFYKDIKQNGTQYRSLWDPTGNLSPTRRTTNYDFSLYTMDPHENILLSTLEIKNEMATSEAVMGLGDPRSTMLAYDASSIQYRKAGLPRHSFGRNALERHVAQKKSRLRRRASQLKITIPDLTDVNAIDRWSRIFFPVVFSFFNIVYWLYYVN", "sequence (P18507 40-475)": "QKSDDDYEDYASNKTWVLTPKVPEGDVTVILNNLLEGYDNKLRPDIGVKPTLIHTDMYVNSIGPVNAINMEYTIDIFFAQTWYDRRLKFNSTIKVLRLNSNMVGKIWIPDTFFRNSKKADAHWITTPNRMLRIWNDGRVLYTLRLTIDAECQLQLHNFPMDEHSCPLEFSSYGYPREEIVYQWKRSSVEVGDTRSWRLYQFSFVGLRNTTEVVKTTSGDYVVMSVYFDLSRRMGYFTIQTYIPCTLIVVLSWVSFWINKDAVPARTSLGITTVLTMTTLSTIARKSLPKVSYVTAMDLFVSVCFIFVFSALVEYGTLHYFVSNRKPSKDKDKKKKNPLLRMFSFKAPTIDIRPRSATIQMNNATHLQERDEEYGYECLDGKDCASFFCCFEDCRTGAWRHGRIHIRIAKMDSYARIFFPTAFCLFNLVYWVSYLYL", "test": "QPatch electrophysiological recording, % enhancement of GABA current (α2 PAM)", "format": "cell-based", "settings": "approximately EC10 GABA, −60 mV, whole-cell patch clamp", "experimental": "Human Embryonic Kidney (HEK) cells were transfected with a GABRA2-GABRB2-GABRG2 construct using standard techniques.\nFor QPatch electrophysiology testing, cells were harvested from flasks by enzymatic dissociation and resuspended in serum-free medium. Cells were typically used for electrophysiological experiments within 24 to 72 hours after splitting.\n(§1) Cell suspension containing HEK cells expressing GABRA2-GABRB2-GABRG2 was placed on the QPatch instrument in serum-free medium into the instrument's cell stirrer. The instrument washed the cells once using extracellular buffer and then dispensed them into the QPlate HT measurement plate at a concentration of 3-4-e6/ml. […] All recordings were made at room temperature (22-24° C.).\n(§2) Current records were acquired at 1 KHz and filtered at 0.3 KHz using the Bessel filter. Series resistance compensation was set to 80% in the QPatch software.\n(§3) All compounds were dissolved in dimethyl sulfoxide to make 30 mM or 10 mM stock solutions, which were then diluted to 1000 times the desired final concentration in dimethyl sulfoxide. These were diluted into extracellular solution to attain the final concentrations desired. […] This concentration of dimethyl sulfoxide was present in all samples.\n(§4) Currents were recorded at −60 mV, using an approximately EC10 concentration of gamma-aminobutyric acid (GABA). This dose of gamma-aminobutyric acid was applied for 6 seconds and washed off using extracellular buffer as an unrecorded application using the pipetting system of the QPatch instrument. The same dose of gamma-aminobutyric acid was then applied for 9 seconds, then the test compound was co-applied with this dose of gamma-aminobutyric acid for 15 seconds, and washed off using the extracellular solution using the pipetting system of the QPatch instrument.\n(§5) Compound effect (% enhancement of gamma-aminobutyric acid current) was calculated using the following formula: [((peak modulator current amplitude-leak)−(GABA current amplitude-leak))/(GABA current amplitude-leak)]*100, where ‘leak’ is leak current at −60 mV, ‘peak modulator current amplitude’ is the current elicited by co-application of gamma-aminobutyric acid and test compound, and ‘GABA current amplitude’ is the current elicited by application of gamma-aminobutyric acid alone."}, "[2]": {"molecular_target": "human recombinant GABA A receptor containing the alpha2, beta2, and gamma3 subunits (Homo sapiens, UniProt P47869+Q99928)", "test": "Radioligand competition binding assay with [3H]Ro-15-1788 (Flumazenil)", "description": "Membranes were prepared from HEK cells expressing hGABA A alpha2beta2-gamma3 receptor, and validated to ascertain protein concentration, receptor expression and to determine the Kd of the flumazenil as well as the Ki of a standard set of compounds before being used to test new compounds.\n100 ul of radioligand and 100 ul of membrane in 50 mM Tris-HCl and 0.05% F127 with 1 ul of test compound was incubated for 2 hours to allow the reaction to achieve equilibrium, and then harvested onto filter plates, dried and counted on a TopCount NXT. The data was analysed, and the Ki values were presented as the geometric mean of at least two replicates."}, "[3]": {"molecular_target": "GABRA1-GABRB3-GABRG2 chloride currents in HEK cells (Homo sapiens (Human), UniProt P14867+P18507)", "sequence (P14867 28-456)": "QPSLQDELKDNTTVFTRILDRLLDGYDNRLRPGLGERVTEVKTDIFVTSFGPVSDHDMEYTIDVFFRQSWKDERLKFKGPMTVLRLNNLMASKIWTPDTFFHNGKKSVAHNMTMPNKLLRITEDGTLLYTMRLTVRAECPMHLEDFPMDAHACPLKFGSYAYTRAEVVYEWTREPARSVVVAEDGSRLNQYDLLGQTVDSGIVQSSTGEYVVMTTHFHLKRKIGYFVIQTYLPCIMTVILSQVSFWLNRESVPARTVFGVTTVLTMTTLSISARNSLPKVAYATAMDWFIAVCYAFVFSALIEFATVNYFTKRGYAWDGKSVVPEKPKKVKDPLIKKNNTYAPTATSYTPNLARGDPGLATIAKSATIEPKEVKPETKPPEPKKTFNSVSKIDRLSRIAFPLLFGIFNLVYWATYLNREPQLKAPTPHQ", "sequence (P28472 26-473 partner)": "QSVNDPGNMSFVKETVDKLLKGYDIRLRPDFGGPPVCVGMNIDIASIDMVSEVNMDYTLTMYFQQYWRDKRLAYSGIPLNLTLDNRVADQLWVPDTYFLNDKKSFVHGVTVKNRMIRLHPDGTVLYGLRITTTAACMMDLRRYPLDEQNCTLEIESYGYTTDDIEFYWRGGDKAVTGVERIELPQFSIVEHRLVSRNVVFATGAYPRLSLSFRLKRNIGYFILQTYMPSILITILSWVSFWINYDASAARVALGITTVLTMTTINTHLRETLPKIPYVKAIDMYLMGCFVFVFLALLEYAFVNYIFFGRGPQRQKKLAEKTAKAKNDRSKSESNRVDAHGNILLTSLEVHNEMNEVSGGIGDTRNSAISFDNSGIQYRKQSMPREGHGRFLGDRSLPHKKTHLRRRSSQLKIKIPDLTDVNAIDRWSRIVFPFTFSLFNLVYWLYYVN", "sequence (P18507 40-475)": "as the sequence (P18507 40-475) above", "test": "QPatch electrophysiological recording, % enhancement of GABA current (α1 PAM)", "format": "cell-based", "settings": "approximately EC10 GABA, −60 mV, whole-cell patch clamp", "experimental": "as §1, §2, §3, §4, §5\nThe ability of the compounds of the formula (I) to modulate the GABA channels expressing the al subunit (or GABRA1) can also be measured using an assay analogous to that described above but replacing the GABRA2-GABRB2-GABRG2 gene construct with the GABRA1-GABRB3-GABRG2 gene construct. All other conditions remain the same including the same cell line and conditions for cell growth."}}}
{"smiles": "CCS(=O)(=O)c1ccc(-c2cc(-c3cnnc4c3ncn4C3CC3)ccc2F)c(C#N)c1", "note": "[Example 25, 5′-(7-Cyclopropyl-7H-imidazo[4,5-c]pyridazin-4-yl)-4-(ethylsulfonyl)-2′-fluoro-[1,1′-biphenyl]-2-carbonitrile]", "values": [{"measurement": "α2 PAM (%)", "setting": "[1]", "result": 23.9, "unit": "%"}, {"measurement": "Ki", "setting": "[2]", "result": 170, "unit": "nM"}, {"measurement": "α1 PAM (%)", "setting": "[3]", "result": "−5.82", "unit": "%"}]}
{"smiles": "COc1cc(S(C)(=O)=O)ccc1-c1cc(-c2cnnc3c2ncn3C2CC2)ccc1F", "note": "[Example 24, 7-Cyclopropyl-4-(6-fluoro-2′-methoxy-4′-(methylsulfonyl)-[1,1′-biphenyl]-3-yl)-7H-imidazo[4,5-c]pyridazine]", "values": [{"measurement": "α2 PAM (%)", "setting": "[1]", "result": 55.3, "unit": "%"}, {"measurement": "Ki", "setting": "[2]", "result": 37.1, "unit": "nM"}, {"measurement": "α1 PAM (%)", "setting": "[3]", "result": "−0.441", "unit": "%"}]}
{"smiles": "CCn1cnc2c(-c3ccc(F)c(-c4ccc(S(=O)(=O)CC)cc4C#N)c3)cnnc21", "note": "[Example 11, 5′-(7-Ethyl-7H-imidazo[4,5-c]pyridazin-4-yl)-4-(ethylsulfonyl)-2′-fluoro-[1,1′-biphenyl]-2-carbonitrile]", "values": [{"measurement": "α2 PAM (%)", "setting": "[1]", "result": 46.7, "unit": "%"}, {"measurement": "Ki", "setting": "[2]", "result": 39.2, "unit": "nM"}, {"measurement": "α1 PAM (%)", "setting": "[3]", "result": "−0.474", "unit": "%"}]}
{"smiles": "CCn1cnc2c(-c3ccc(F)c(-c4ccc(S(=O)(=O)C(C)C)cc4)c3)cnnc21", "note": "[Example 1, 7-Ethyl-4-[6-fluoro-4′-(propan-2-ylsulfonyl)biphenyl-3-yl]-7H-imidazo[4,5-c]pyridazine]", "values": [{"measurement": "α2 PAM (%)", "setting": "[1]", "result": 124, "unit": "%"}, {"measurement": "Ki", "setting": "[2]", "result": 31.1, "unit": "nM"}, {"measurement": "α1 PAM (%)", "setting": "[3]", "result": 1.05, "unit": "%"}]}
{"smiles": "COc1cc(S(C)(=O)=O)ccc1-c1cc(-c2cnnc3c2ncn3C2CCC2)ccc1F", "note": "[Example 29, 7-Cyclobutyl-4-(6-fluoro-2′-methoxy-4′-(methylsulfonyl)-[1,1′-biphenyl]-3-yl)-7H-imidazol[4,5-c]pyridazine]", "values": [{"measurement": "α2 PAM (%)", "setting": "[1]", "result": 173, "unit": "%"}, {"measurement": "Ki", "setting": "[2]", "result": 101, "unit": "nM"}, {"measurement": "α1 PAM (%)", "setting": "[3]", "result": 69.4, "unit": "%"}]}
{"smiles": "CC(C)n1cnc2c(-c3ccc(F)c(-c4ccc(S(N)(=O)=O)cc4)c3)cnnc21", "note": "[Example 32, 2′-Fluoro-5′-(7-isopropyl-7H-imidazo[4,5-c]pyridazin-4-yl)biphenyl-4-sulfonamide]", "values": [{"measurement": "α2 PAM (%)", "setting": "[1]", "result": 77.2, "unit": "%"}, {"measurement": "Ki", "setting": "[2]", "result": 5.82, "unit": "nM"}, {"measurement": "α1 PAM (%)", "setting": "[3]", "result": "−29.5", "unit": "%"}]}
{"smiles": "COc1cc(S(C)(=O)=O)ccc1-c1cc(-c2cnnc3c2ncn3C(C)C)ccc1F", "note": "[Example 38, 4-(6-Fluoro-2′-methoxy-4′-(methylsulfonyl)-[1,1′-biphenyl]-3-yl)-7-isopropyl-7H-imidazo[4,5-c]pyridazine]", "values": [{"measurement": "α2 PAM (%)", "setting": "[1]", "result": 62.5, "unit": "%"}, {"measurement": "Ki", "setting": "[2]", "result": 8.56, "unit": "nM"}, {"measurement": "α1 PAM (%)", "setting": "[3]", "result": 14.6, "unit": "%"}]}
{"smiles": "CCn1cnc2c(-c3ccc(F)c(-c4ccc(S(C)(=O)=O)cc4F)c3)cnnc21", "note": "[Example 2, 4-[2′,6-Difluoro-4′-(methylsulfonyl)biphenyl-3-yl]-7-ethyl-7H-imidazo[4,5-c]pyridazine]", "values": [{"measurement": "α2 PAM (%)", "setting": "[1]", "result": 1.69, "unit": "%"}, {"measurement": "Ki", "setting": "[2]", "result": 10.9, "unit": "nM"}, {"measurement": "α1 PAM (%)", "setting": "[3]", "result": "−4.67", "unit": "%"}]}
{"smiles": "CS(=O)(=O)c1ccc(-c2cc(-c3cnnc4c3ncn4C3CC3)ccc2F)cc1", "note": "[Example 21, 7-Cyclopropyl-4-(6-fluoro-4′-(methylsulfonyl)biphenyl-3-yl)-7H-imidazo[4,5-c]pyridazine]", "values": [{"measurement": "α2 PAM (%)", "setting": "[1]", "result": 31.6, "unit": "%"}, {"measurement": "Ki", "setting": "[2]", "result": 43.3, "unit": "nM"}, {"measurement": "α1 PAM (%)", "setting": "[3]", "result": "−5.78", "unit": "%"}]}
{"smiles": "COc1cc(S(C)(=O)=O)ccc1-c1cc(-c2cnnc3c2ncn3C2CCCC2)ccc1F", "note": "[Example 42, 7-Cyclopentyl-4-(6-fluoro-2′-methoxy-4′-(methylsulfonyl)-[1,1′-biphenyl]-3-yl)-7H-imidazo[4,5-c]pyridazine]", "values": [{"measurement": "α2 PAM (%)", "setting": "[1]", "result": 199, "unit": "%"}, {"measurement": "Ki", "setting": "[2]", "result": 91.4, "unit": "nM"}, {"measurement": "α1 PAM (%)", "setting": "[3]", "result": 112, "unit": "%"}]}
{"smiles": "CNS(=O)(=O)c1ccc(-c2cc(-c3cnnc4c3ncn4C(C)C)ccc2F)cc1", "note": "[Example 33, 2′-Fluoro-N-methyl-5′-[7-(propan-2-yl)-7H-imidazo[4,5-c]pyridazin-4-yl]biphenyl-4-sulfonamide]", "values": [{"measurement": "α2 PAM (%)", "setting": "[1]", "result": 79.9, "unit": "%"}, {"measurement": "Ki", "setting": "[2]", "result": 16.4, "unit": "nM"}, {"measurement": "α1 PAM (%)", "setting": "[3]", "result": "−27.0", "unit": "%"}]}
{"smiles": "CCn1cnc2c(-c3ccc(F)c(-c4ccc(S(=O)(=O)NC)cc4)c3)cnnc21", "note": "[Example 8, 5′-(7-Ethyl-7H-imidazo[4,5-c]pyridazin-4-yl)-2′-fluoro-N-methylbiphenyl-4-sulfonamide]", "values": [{"measurement": "α2 PAM (%)", "setting": "[1]", "result": 19.4, "unit": "%"}, {"measurement": "α1 PAM (%)", "setting": "[3]", "result": "−55.1", "unit": "%"}]}
{"smiles": "CCS(=O)(=O)c1ccc(-c2cc(-c3cnnc4c3ncn4C3CC3)ccc2F)cc1", "note": "[Example 19, 7-Cyclopropyl-4-[4′-(ethylsulfonyl)-6-fluorobiphenyl-3-yl]-7H-imidazo[4,5-c]pyridazine]", "values": [{"measurement": "α2 PAM (%)", "setting": "[1]", "result": 84.3, "unit": "%"}, {"measurement": "Ki", "setting": "[2]", "result": 31.1, "unit": "nM"}, {"measurement": "α1 PAM (%)", "setting": "[3]", "result": "−6.17", "unit": "%"}]}
{"smiles": "CCn1cnc2c(-c3ccc(F)c(-c4ccc(S(C)(=O)=O)cc4OC)c3)cnnc21", "note": "[Example 12, 7-Ethyl-4-(6-fluoro-2′-methoxy-4′-(methylsulfonyl)-[1,1′-biphenyl]-3-yl)-7H-imidazo[4,5-c]pyridazine]", "values": [{"measurement": "α2 PAM (%)", "setting": "[1]", "result": 39.1, "unit": "%"}, {"measurement": "α1 PAM (%)", "setting": "[3]", "result": 3.66, "unit": "%"}]}
{"smiles": "CCn1cnc2c(-c3ccc(F)c(-c4ccc(S(N)(=O)=O)cc4)c3)cnnc21", "note": "[Example 3, 5′-(7-Ethyl-7H-imidazo[4,5-c]pyridazin-4-yl)-2′-fluorobiphenyl-4-sulfonamide]", "values": [{"measurement": "α2 PAM (%)", "setting": "[1]", "result": 27.6, "unit": "%"}, {"measurement": "α1 PAM (%)", "setting": "[3]", "result": "−51.1", "unit": "%"}]}
{"smiles": "CCS(=O)(=O)c1ccc(-c2cc(-c3cnnc4c3ncn4C(C)C)ccc2F)c(C#N)c1", "note": "[Example 41, 4-(Ethylsulfonyl)-2′-fluoro-5′-(7-isopropyl-7H-imidazo[4,5-c]pyridazin-4-yl)-[1,1′-biphenyl]-2-carbonitrile]", "values": [{"measurement": "α2 PAM (%)", "setting": "[1]", "result": 81.3, "unit": "%"}, {"measurement": "Ki", "setting": "[2]", "result": 29.1, "unit": "nM"}, {"measurement": "α1 PAM (%)", "setting": "[3]", "result": 14.9, "unit": "%"}]}
{"smiles": "CCS(=O)(=O)c1ccc(-c2cc(-c3cnnc4c3ncn4C(C)C)ccc2F)cc1", "note": "[Example 31, 4-[4′-(Ethylsulfonyl)-6-fluorobiphenyl-3-yl]-7-(propan-2-yl)-7H-imidazo[4,5-c]pyridazine]", "values": [{"measurement": "α2 PAM (%)", "setting": "[1]", "result": 118, "unit": "%"}, {"measurement": "Ki", "setting": "[2]", "result": 23.9, "unit": "nM"}, {"measurement": "α1 PAM (%)", "setting": "[3]", "result": 21.3, "unit": "%"}]}
{"smiles": "CCS(=O)(=O)c1ccc(-c2cc(-c3cnnc4c3ncn4C(C)C)ccc2F)c(F)c1", "note": "[Example 34, 4-[4′-(Ethylsulfonyl)-2′,6-difluorobiphenyl-3-yl]-7-(propan-2-yl)-7H-imidazol[4,5-c]pyridazine]", "values": [{"measurement": "α2 PAM (%)", "setting": "[1]", "result": 94.7, "unit": "%"}, {"measurement": "Ki", "setting": "[2]", "result": 34.5, "unit": "nM"}, {"measurement": "α1 PAM (%)", "setting": "[3]", "result": 4.99, "unit": "%"}]}
